In PMC8471537, “Novel Coumarin-Thiadiazole Hybrids and Their Cu(II) and Zn(II) Complexes as Potential Antimicrobial Agents and Acetylcholinesterase Inhibitors” (International Journal of Molecular Sciences, 2021):

biological target: Acetylcholinesterase (AChE; E.C. 3.1.1.7) from Electrophorus electricus (Electrophorus electricus, UniProt O42275); experiment: Ellman assay, absorbance at […] nm; assay type: biochemical
Sequence (O42275 24-633): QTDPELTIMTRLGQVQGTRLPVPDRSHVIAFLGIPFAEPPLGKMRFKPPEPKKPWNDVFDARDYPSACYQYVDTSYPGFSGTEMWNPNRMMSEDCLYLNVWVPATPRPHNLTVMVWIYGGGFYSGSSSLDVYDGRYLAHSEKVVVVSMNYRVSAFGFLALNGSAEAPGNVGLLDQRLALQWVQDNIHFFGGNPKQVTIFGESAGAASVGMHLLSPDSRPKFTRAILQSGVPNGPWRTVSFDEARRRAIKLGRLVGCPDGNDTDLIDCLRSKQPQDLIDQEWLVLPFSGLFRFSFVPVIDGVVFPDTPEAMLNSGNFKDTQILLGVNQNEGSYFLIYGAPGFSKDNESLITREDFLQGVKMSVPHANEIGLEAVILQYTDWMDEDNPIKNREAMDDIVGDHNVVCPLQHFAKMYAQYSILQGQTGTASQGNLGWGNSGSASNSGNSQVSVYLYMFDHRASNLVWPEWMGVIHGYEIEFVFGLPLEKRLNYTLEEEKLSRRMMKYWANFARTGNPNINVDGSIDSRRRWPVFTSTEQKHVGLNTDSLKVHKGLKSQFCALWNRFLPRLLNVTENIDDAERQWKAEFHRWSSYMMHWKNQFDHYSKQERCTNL

In order of rising IC50:
1. CC(=O)Nc1nnc(-c2c(O)ccc3c(C)cc(=O)oc23)s1 [compound 4, 4]  0.181 ± 0.0123 µM
2. CNc1nnc(-c2c(O)ccc3c(C)cc(=O)oc23)s1 [compound 3, 3]  0.211 ± 0.0123 µM
3. Cc1cc(=O)oc2c(-c3nnc(N)s3)c(O)ccc12 [compound 2, 2]  0.218 ± 0.0084 µM
4. Cc1cc(=O)oc2c(-c3nnc(Nc4ccccc4)s3)c(O)ccc12 [compound 5, 5]  0.299 ± 0.0194 µM
